Assay results: paper PMC7154053, “Chemical, Metabolic, and Cellular Characterization of a FtsZ Inhibitor Effective Against Burkholderia cenocepacia” (Frontiers in Microbiology, 2020)
≈ marks a conversion by molar mass, not a printed value. Read-outs that look alike come from different tables or passages of the source.

What was measured:
B. cenocepacia J2315 = assay: MIC, 2-fold microdilution, resazurin method; type: cell-based, Burkholderia cenocepacia; details: for MIC: Burkholderia cenocepacia; for activity compared with C109, in words: SAR statements, against both bacteria and the purified enzyme
Protocol: (§1) Burkholderia cenocepacia strains, Escherichia coli ATCC 25922, Pseudomonas aeruginosa PAO1, and Staphylococcus aureus ATCC 25923 were grown in Luria-Bertani (LB) medium (Difco), if not differently specified, with shaking at 200 rpm, or on LB agar, at 37°C.
(§2) The microtiter plates were incubated at 37°C for 48 (for B. cenocepacia) or 24 h (for all the other strains) and growth was determined by the resazurin method (Martin et al., [2006]). A solution of resazurin sodium salt (Sigma Aldrich) was prepared at 0.01% in distilled water and filter-sterilized. Thirty microliter of resazurin solution were added to each well after 1 or 2 days of incubation at 37°C, and the microtiters were re-incubated at the same temperature for 4 h. The MIC was defined as the lowest concentration of the drug that prevented a change in color from blue to pink, which indicates bacterial growth.
(§3) Three independent biological replicates were used for each MIC determination.

S. aureus ATCC 25923 = assay: MIC, 2-fold microdilution, resazurin method; type: cell-based, Staphylococcus aureus; details: for spectrum of activity, in words: S. aureus vs Gram-negative species; for MIC: Staphylococcus aureus, ATCC25923
Protocol: as §1, §2, §3

P. aeruginosa PAO1 = assay: MIC, 2-fold microdilution, resazurin method; type: cell-based; details: Pseudomonas aeruginosa, PAO1
Protocol: as §1, §2, §3

E. coli ATCC 25922 = assay: MIC, 2-fold microdilution, resazurin method; type: cell-based; details: Escherichia coli, ATCC25922
Protocol: as §1, §2, §3

[1] = target: Burkholderia cenocepacia purified FtsZ protein (Burkholderia cenocepacia, UniProt B4E5Y7); assay: biochemical; type: biochemical; details: for Inhibits B. cenocepacia FtsZ GTPase at 100µM? / Inhibition of Bc FtsZ At 100 μM: Yes/No; for Inhibits B. cenocepacia FtsZ GTPase at 100µM?: Supplementary Table 1; for Inhibition of Bc FtsZ At 100 μM: 100 μM compound
Sequence of Burkholderia cenocepacia purified FtsZ protein (B4E5Y7 entry or part of it): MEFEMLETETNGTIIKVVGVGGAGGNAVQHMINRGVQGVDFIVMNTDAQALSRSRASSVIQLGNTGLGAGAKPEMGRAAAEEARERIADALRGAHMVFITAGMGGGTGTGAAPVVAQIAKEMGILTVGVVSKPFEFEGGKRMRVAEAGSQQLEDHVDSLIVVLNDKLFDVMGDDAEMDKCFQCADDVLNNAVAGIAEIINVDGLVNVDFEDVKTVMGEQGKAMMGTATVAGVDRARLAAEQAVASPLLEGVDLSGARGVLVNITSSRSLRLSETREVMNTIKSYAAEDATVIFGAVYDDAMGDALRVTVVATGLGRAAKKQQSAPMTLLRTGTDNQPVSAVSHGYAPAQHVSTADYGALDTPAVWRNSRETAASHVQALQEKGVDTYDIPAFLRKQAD
Protocol: All the recombinant FtsZ proteins were expressed at 20°C overnight in E. coli BL21(DE3) cells, upon induction with 0.5 mM IPTG, and purified using the same protocol assessed for the wild-type B. cenocepacia FtsZ (Hogan et al., [2018]).
GTPase enzyme activity was determined using a pyruvate kinase/L-lactic dehydrogenase (PK/LDH) spectrophotometric coupled assay (Ingerman and Nunnari, [2005]). The assays were performed at 30°C, in a reaction mixture containing […] Hepes pH 7.5, 5 mM MgCl2, 5 mM KCl, 10 U PK/LDH, 0.25 mM NADH, 0.25 mM PEP, and 5–10 μM FtsZ, and initiated by the addition of 0.5 mM GTP. Alternatively, GTPase activity was determined by measuring the release of phosphate using the malachite green assay (Baykov et al., [1988]).
(1) A[I]=A[0]×(1-[I]/[I]+IC50)
where A[I] is the enzyme activity at inhibitor concentration [I] and A[0] is the enzyme activity without inhibitor.

[2] = J2315, LB, 48 h, read-out: MIC B. cenocepacia J2315
[3] = J2315, Supplementary Table 1, read-out: MIC (µg/ml) B. cenocepacia J2315
[4] = LB, 24 h, read-out: MIC S. aureus 25923
[5] = Supplementary Table 1, read-out: MIC (µg/ml) S. aureus 25923
[6] = LB, 24 h, read-out: MIC P. aeruginosa PAO1
[7] = Supplementary Table 1, read-out: MIC (µg/ml) P. aeruginosa PAO1
[8] = LB, 24 h, read-out: MIC E. coli 25922
[9] = Supplementary Table 1, read-out: MIC (µg/ml) E. coli 25922

SMILES | MIC (B. cenocepacia J2315; [2]) | MIC (B. cenocepacia J2315; [3]) | spectrum of activity, in words (S. aureus ATCC 25923) | MIC (S. aureus ATCC 25923; [4]) | MIC (S. aureus ATCC 25923; [5]) | MIC (P. aeruginosa PAO1; [6]) | MIC (P. aeruginosa PAO1; [7]) | MIC (E. coli ATCC 25922; [8]) | MIC (E. coli ATCC 25922; [9]) | melting point | IC50 [1] | Inhibits B. cenocepacia FtsZ GTPase at 100µM? [1] | activity compared with C109, in words (B. cenocepacia J2315) | Inhibition of Bc FtsZ At 100 μM [1] | MIC (B. cenocepacia J2315; J2315, 48 h, read-out: MIC B. cenocepacia J2315) | MIC (B. cenocepacia J2315; J2315, read-out: MIC (µg/ml) B. cenocepacia J2315)
O=[N+]([O-])c1c(Sc2ncc[nH]2)ccc2nsnc12 [compound 11726256] | 128 µg/mL (≈ 458 µM) | 256 µg/mL (≈ 917 µM) | showed activity only against S. aureus | 8 µg/mL (≈ 28.6 µM) | 8 µg/mL (≈ 28.6 µM) | > 256 µg/mL | > 256 µg/mL | 128 µg/mL (≈ 458 µM) | 128 µg/mL (≈ 458 µM) | 213 to 215 °C | > 100 µM | Yes |  |  |  | 
CCOC(=O)CCSc1ccc2nsnc2c1[N+](=O)[O-] [compound 10226047] | > 512 µg/mL | > 512 µg/mL |  | > 512 µg/mL | > 512 µg/mL | > 128 µg/mL | > 128 µg/mL | > 512 µg/mL | > 512 µg/mL | 89 to 91 °C |  | No | completely loss of activity | No |  | 
COc1cc(SC#N)c2nsnc2c1[N+](=O)[O-] [compound 11126009] | > 128 µg/mL | > 128 µg/mL | showed activity only against S. aureus | 8 µg/mL (≈ 29.8 µM) | 8 µg/mL (≈ 29.8 µM) | > 128 µg/mL | > 128 µg/mL | > 512 µg/mL | > 512 µg/mL | 143 to 145 °C | 4 µM | Yes |  | Yes |  | 
CCOc1cc(SC#N)c2nsnc2c1[N+](=O)[O-] [compound 11026177] | > 512 µg/mL | > 512 µg/mL | showed activity only against S. aureus | 4 µg/mL (≈ 14.2 µM) | 4 µg/mL (≈ 14.2 µM) | 64 µg/mL (≈ 227 µM) | 64 µg/mL (≈ 227 µM) | > 512 µg/mL | > 512 µg/mL | 128 to 129 °C | 19 µM | Yes |  | Yes |  | 
COC(=O)CSc1cc(SCC(=O)OC)c2nsnc2c1[N+](=O)[O-] [compound 11726258] | 256 µg/mL (≈ 657 µM) | 256 µg/mL (≈ 657 µM) |  | 256 µg/mL (≈ 657 µM) | 256 µg/mL (≈ 657 µM) | > 256 µg/mL | > 256 µg/mL | > 256 µg/mL | > 256 µg/mL | 141 to 143 °C | 15 µM | Yes |  | Yes |  | 
O=C(O)CSc1ccc2nsnc2c1[N+](=O)[O-] [compound 11426177] | > 128 µg/mL | > 128 µg/mL |  | 256 µg/mL (≈ 944 µM) | 256 µg/mL (≈ 944 µM) |  |  | > 512 µg/mL | > 512 µg/mL | 215 to 217 °C |  | No | not active against B. cenocepacia | No |  | 
CCOC(=O)COc1ccc2nsnc2c1[N+](=O)[O-] [compound 11726041] | > 256 µg/mL | > 256 µg/mL |  | > 256 µg/mL | > 256 µg/mL |  |  | > 512 µg/mL | > 512 µg/mL | 131 to 133 °C |  | No | completely loss of activity | No |  | 
CCOC(=O)CNc1ccc2nsnc2c1[N+](=O)[O-] [compound 11726042] | > 256 µg/mL | > 256 µg/mL |  | > 256 µg/mL | > 256 µg/mL |  |  | > 512 µg/mL | > 512 µg/mL | 169 to 171 °C |  | No | completely loss of activity | No |  | 
N#CSc1cc(-c2ccc([N+](=O)[O-])cc2)c2nsnc2c1[N+](=O)[O-] [compound 11026176] |  |  | showed activity only against S. aureus | 4 µg/mL (≈ 11.1 µM) | 4 µg/mL (≈ 11.1 µM) | > 128 µg/mL | > 128 µg/mL | > 512 µg/mL | > 512 µg/mL |  | 17 µM | Yes |  | Yes | > 512 µg/mL | > 512 µg/mL
